The source of these data is patent US12018059B2, “Human amylin analog polypeptides and methods of use” (Intarcia Therapeutics, Inc., priority 2018, dated 2024).

Like-named read-outs stand apart in the source and are kept apart here. Positions of bridges follow the written chain, without caps; N, C: chain ends. Non-standard residues stand in square brackets, D forms with d. Residues, ends and D or L forms follow the SMILES beside them.

The data set in a line: Pharmacokinetics, 3-hour intravenous infusion of linear (non-acylated) polypeptides. Further details: species or system Sprague-Dawley rats. The settings on record: rat, in vivo, 0.1 mg/kg. As to the method:
Peptides were dissolved in sterile saline and administered as a 3-hour intravenous infusion to non-fasted male Sprague-Dawley rats (n=3 per group) via femoral vein cannula at a final dose of 0.100 mg/kg. […] Blood samples (approximately 250 μL) were collected for pharmacokinetic analysis via a jugular vein cannula at 0.25, 0.5, 1, 2, 3, 3.17, 3.33, 3.5, 4, 4.5, 5, and 6 hr post-start of infusion (long method) or at 1, 1.5, 2, 2.5, and 3 hr post-start of infusion (steady-state screening method). All samples were collected into microtainer tubes containing K2EDTA as anticoagulant and 25 μL of a protease inhibitor cocktail. Plasma was prepared by centrifugation and stored at −80° C. until analysis. The results of this analysis are shown in Table 9 and few exemplars in FIGS. 3a-3b.
A 60 μL aliquot of each plasma sample was placed into to a 96-well plate. To each well was added 6 μL of 0.5% Tween-20. Plates were then vortexed mixed for 10 minutes at 1200 rpm before 180 μL of 0.1% TFA in 2:1 ethanol:acetonitrile containing an appropriate internal standard was added to each well. Plates were vortex mixed for 5 min at 1300 rpm, and then centrifuged for 10 min at 2844×g. Supernatants (180 μL) were placed into a clean 96-well plate and evaporated under a nitrogen stream at 45° C. Residues were reconstituted in 80 μL of 20% acetonitrile (aq) containing 0.1% formic acid.
A […] aliquot of each plasma sample was diluted with […] of 10 mM ammonium acetate (pH 6.8) containing an appropriate internal standard and loaded onto an Oasis WCX microElution plate (Waters Corporation, Milford, MA) that had been pre-conditioned with […] of methanol and […] of deionized water. Samples were washed with […] of 5% ammonium hydroxide (aq) followed by […] of 20% acetonitrile in water. The analyte was eluted with […] of 5% formic acid in 75:25 acetonitrile:water. The eluent was dried under a nitrogen stream. Residues were reconstituted in 80 μL of 20% acetonitrile (aq) containing 0.1% formic acid.
All calibration standards were prepared in control rat plasma containing K2EDTA and protease inhibitor cocktail.
Samples and standards were analyzed by TurbolonSpray™ UPLC-MS/MS using a system consisting of a CTC HTS PAL auto-injector (Leap, Carrboro, NC), an Agilent Infinity 1290 system with column oven (Palo Alto, CA), a Valco switching valve (Houston, TX), and either an AB Sciex API 5600 TripleTOF™ or Sciex API 4000QTrap mass spectrometer (Framingham, MA). Samples were injected onto a 2.1×50 mm reverse phase C18 analytical column, typically a Waters CORTECS UPLC C18+, 1.6 μm (Waters Corporation, Milford, MA) or similar. […] Initial conditions consisted of 90% A and 10% B. The organic component was increased to 95% B over a period of 3-4 minutes, depending on the peptide. Typical flow rates were 600 μL/min. The column temperature was held constant at 40 or 50° C. Peptides were quantified by monitoring one or more product ions produced from a multiply charged parent ion.

Setting [1] is: linear polypeptides, 3-hour intravenous infusion, 0.100 mg/kg, male Sprague-Dawley rats, read-out: CL.

Where the note is “iv”, `CC[C@H](C)[C@H](NC(=O)[C@@H]1CCCN1C(=O)CNC(=O)[C@H](Cc1ccccc1)NC(=O)[C@H](CCC(=O)O)NC(=O)[C@H](CC(N)=O)NC(=O)[C@H](CO)NC(=O)[C@H](CO)NC(=O)[C@H](CCCCN)NC(=O)[C@@H](NC(=O)[C@H](CC(C)C)NC(=O)[C@H](Cc1ccccc1)NC(=O)[C@H](CC(N)=O)NC(=O)[C@H](CO)NC(=O)[C@H](CC(C)C)NC(=O)[C@H](CCCNC(=N)N)NC(=O)[C@H](CCC(N)=O)NC(=O)[C@@H](NC(=O)[C@H](C)NC(=O)[C@@H]1CSSC[C@H](NC(=O)[C@@H](N)CO)C(=O)N[C@@H](CC(N)=O)C(=O)N[C@@H]([C@@H](C)O)C(=O)N[C@@H](CO)C(=O)N[C@@H]([C@@H](C)O)C(=O)N1)[C@@H](C)O)C(C)C)C(=O)N[C@@H](CC(C)C)C(=O)N1CCC[C@H]1C(=O)N1CCC[C@H]1C(=O)N[C@H](C(=O)N[C@@H](CCCCN)C(=O)N[C@H](C(=O)NCC(=O)N[C@@H](CO)C(=O)N[C@@H](CCC(=O)O)C(=O)N[C@H](C(=O)N[C@@H](Cc1ccc(O)cc1)C(N)=O)[C@@H](C)O)C(C)C)[C@@H](C)O` [Compound A4] (H-SCNTSTCATQRLSNFLVKSSNEFGPILPPTKVGSETY-NH2; disulfide 2-7) registered a clearance of 13.6 mL/min/kg. As to `CC[C@H](C)[C@H](NC(=O)[C@@H]1CCCN1C(=O)CNC(=O)[C@H](Cc1ccccc1)NC(=O)[C@H](CCC(=O)O)NC(=O)[C@H](CC(N)=O)NC(=O)[C@H](CO)NC(=O)[C@H](CO)NC(=O)[C@H](CCCCN)NC(=O)[C@@H](NC(=O)[C@@H](CC(C)C)NC(=O)[C@H](Cc1ccccc1)NC(=O)[C@H](CC(N)=O)NC(=O)[C@H](C)NC(=O)[C@H](CC(C)C)NC(=O)[C@H](CCCNC(=N)N)NC(=O)[C@H](CCC(N)=O)NC(=O)[C@@H](NC(=O)[C@H](C)NC(=O)[C@@H]1CSSC[C@H](NC(=O)[C@@H](N)CO)C(=O)N[C@@H](CC(N)=O)C(=O)N[C@@H]([C@@H](C)O)C(=O)N[C@@H](CO)C(=O)N[C@@H]([C@@H](C)O)C(=O)N1)[C@@H](C)O)C(C)C)C(=O)N[C@@H](CC(C)C)C(=O)N1CCC[C@H]1C(=O)N1CCC[C@H]1C(=O)N[C@H](C(=O)N[C@@H](CCCCN)C(=O)N[C@H](C(=O)NCC(=O)N[C@@H](CO)C(=O)N[C@@H](CCC(=O)O)C(=O)N[C@H](C(=O)N[C@@H](Cc1ccc(O)cc1)C(N)=O)[C@@H](C)O)C(C)C)[C@@H](C)O` [Compound A6] (H-SCNTSTCATQRLANF[dL]VKSSNEFGPILPPTKVGSETY-NH2; disulfide 2-7; N-terminus assumed), the clearance (iv) is 26.4 mL/min/kg.

`CC[C@H](C)[C@H](NC(=O)[C@@H]1CCCN1C(=O)CNC(=O)[C@H](Cc1ccccc1)NC(=O)[C@H](CCC(=O)O)NC(=O)[C@H](CC(N)=O)NC(=O)[C@H](CO)NC(=O)[C@H](CO)NC(=O)[C@H](CCCCN)NC(=O)[C@@H](NC(=O)[C@H](CC(C)C)NC(=O)[C@H](Cc1ccc(O)cc1)NC(=O)[C@H](CC(N)=O)NC(=O)[C@H](C)NC(=O)[C@H](CC(C)C)NC(=O)[C@H](CCCNC(=N)N)NC(=O)[C@H](CCC(N)=O)NC(=O)[C@@H](NC(=O)[C@H](C)NC(=O)[C@@H]1CSSC[C@H](NC(=O)[C@@H](N)CO)C(=O)N[C@@H](CC(N)=O)C(=O)N[C@@H]([C@@H](C)O)C(=O)N[C@@H](CO)C(=O)N[C@@H]([C@@H](C)O)C(=O)N1)[C@@H](C)O)C(C)C)C(=O)N[C@@H](CC(C)C)C(=O)N1CCC[C@H]1C(=O)N1CCC[C@H]1C(=O)N[C@H](C(=O)N[C@@H](CCCCN)C(=O)N[C@H](C(=O)NCC(=O)N[C@@H](CO)C(=O)N[C@@H](CCC(=O)O)C(=O)N[C@H](C(=O)N[C@@H](Cc1ccc(O)cc1)C(N)=O)[C@@H](C)O)C(C)C)[C@@H](C)O` [Compound A15] (H-SCNTSTCATQRLANYLVKSSNEFGPILPPTKVGSETY-NH2; disulfide 2-7) showed a clearance (iv) of 14.4 mL/min/kg.

With `CC[C@H](C)[C@H](NC(=O)[C@@H]1CCCN1C(=O)CNC(=O)[C@H](Cc1ccccc1)NC(=O)[C@H](CC(N)=O)NC(=O)[C@H](CC(N)=O)NC(=O)[C@H](CO)NC(=O)[C@H](CO)NC(=O)[C@H](CCCCN)NC(=O)[C@H](Cc1c[nH]cn1)NC(=O)[C@H](CC(C)C)NC(=O)[C@H](CCC(=O)O)NC(=O)[C@H](CC(N)=O)NC(=O)[C@H](C)NC(=O)[C@H](CC(C)C)NC(=O)[C@H](CCCNC(=N)N)NC(=O)[C@H](CCC(N)=O)NC(=O)[C@@H](NC(=O)[C@H](C)NC(=O)[C@@H]1CSSC[C@H](NC(=O)[C@@H](N)CO)C(=O)N[C@@H](CC(N)=O)C(=O)N[C@@H]([C@@H](C)O)C(=O)N[C@@H](CO)C(=O)N[C@@H]([C@@H](C)O)C(=O)N1)[C@@H](C)O)C(=O)N[C@@H](CC(C)C)C(=O)N1CCC[C@H]1C(=O)N1CCC[C@H]1C(=O)N[C@H](C(=O)N[C@@H](CCCCN)C(=O)N[C@H](C(=O)NCC(=O)N[C@@H](CO)C(=O)N[C@@H](CC(N)=O)C(=O)N[C@H](C(=O)N[C@@H](Cc1ccc(O)cc1)C(N)=O)[C@@H](C)O)C(C)C)[C@@H](C)O` [Compound A17] (H-SCNTSTCATQRLANELHKSSNNFGPILPPTKVGSNTY-NH2; disulfide 2-7), under setting [1], the clearance stood at 20 mL/min/kg. Regarding `CC[C@H](C)[C@H](NC(=O)[C@@H]1CCCN1C(=O)CNC(=O)[C@H](Cc1ccccc1)NC(=O)[C@H](CC(N)=O)NC(=O)[C@H](CC(N)=O)NC(=O)[C@H](CO)NC(=O)[C@H](CO)NC(=O)[C@H](Cc1c[nH]cn1)NC(=O)[C@@H](NC(=O)[C@H](CC(C)C)NC(=O)[C@H](CCC(=O)O)NC(=O)[C@H](CC(N)=O)NC(=O)[C@H](C)NC(=O)[C@H](CC(C)C)NC(=O)[C@H](CCCNC(=N)N)NC(=O)[C@H](CO)NC(=O)[C@@H](NC(=O)[C@H](C)NC(=O)[C@@H]1CSSC[C@H](NC(=O)[C@@H](N)CO)C(=O)N[C@@H](CC(N)=O)C(=O)N[C@@H]([C@@H](C)O)C(=O)N[C@@H](CO)C(=O)N[C@@H]([C@@H](C)O)C(=O)N1)[C@@H](C)O)C(C)C)C(=O)N[C@@H](CC(C)C)C(=O)N1CCC[C@H]1C(=O)N1CCC[C@H]1C(=O)N[C@H](C(=O)N[C@@H](CC(N)=O)C(=O)N[C@H](C(=O)NCC(=O)N[C@@H](CO)C(=O)N[C@@H](CC(N)=O)C(=O)N[C@H](C(=O)N[C@@H](Cc1ccc(O)cc1)C(N)=O)[C@@H](C)O)C(C)C)[C@@H](C)O` [Compound A32] (H-SCNTSTCATSRLANELVHSSNNFGPILPPTNVGSNTY-NH2; disulfide 2-7), under setting [1], the clearance is 19.5 mL/min/kg. For the setting “iv”, `CC[C@H](C)[C@H](NC(=O)[C@@H]1CCCN1C(=O)CNC(=O)[C@H](Cc1ccccc1)NC(=O)[C@H](CC(N)=O)NC(=O)[C@H](CC(N)=O)NC(=O)[C@H](CO)NC(=O)[C@H](CO)NC(=O)[C@H](CCCNC(=N)N)NC(=O)[C@H](Cc1c[nH]cn1)NC(=O)[C@H](CC(C)C)NC(=O)[C@H](CCC(=O)O)NC(=O)[C@H](CC(N)=O)NC(=O)[C@H](CO)NC(=O)[C@H](CC(C)C)NC(=O)[C@H](CCCNC(=N)N)NC(=O)[C@H](CO)NC(=O)[C@@H](NC(=O)[C@H](C)NC(=O)[C@@H]1CSSC[C@H](NC(=O)[C@@H](N)CO)C(=O)N[C@@H](CC(N)=O)C(=O)N[C@@H]([C@@H](C)O)C(=O)N[C@@H](CO)C(=O)N[C@@H]([C@@H](C)O)C(=O)N1)[C@@H](C)O)C(=O)N[C@@H](CC(C)C)C(=O)N1CCC[C@H]1C(=O)N1CCC[C@H]1C(=O)N[C@H](C(=O)N[C@@H](CCCCN)C(=O)N[C@H](C(=O)NCC(=O)N[C@@H](CO)C(=O)N[C@@H](CCC(=O)O)C(=O)N[C@H](C(=O)N[C@@H](Cc1ccc(O)cc1)C(N)=O)[C@@H](C)O)C(C)C)[C@@H](C)O` [Compound A33] (H-SCNTSTCATSRLSNELHRSSNNFGPILPPTKVGSETY-NH2; disulfide 2-7) registered a clearance of 17.7 mL/min/kg.
